The subject of one experiment is MMP2. The experiment can be described thus: Gelatin zymography of MMP2 activity in LPS-activated scleral fibroblasts and ARPE-19 cells. As to conditions: LPS + 100 μM atropine or LPS + 50 μM diacerein; 48 hours. It is filed as cell-based. The procedure:
To facilitate subsequent analysis, 1×10^6 cells were seeded in 24-well plates for at least 12 hours. […] To measure the MMP-2/MMP-9 activities, samples were separated using 8% SDS-PAGE containing 0.1% gelatin.

The test system of experiment [1] is sclera and retina of hamster eyes. The experiment can be described thus: Immunohistochemistry of hamster eyes (sclera, retina). It is filed as in vivo. The protocol:
Antigen retrieval was performed by boiling the slides in citrate buffer (pH 6.0); the sections were then stained with antibodies against IL-6, TNF-α, TGF-β, MMP2, c-Fos, NF-κB, and CHRM1 and 3. The EnVision System peroxidase kit (DAKO, Carpentaria, Calif., USA) was used to visualize immunoreactivity.

For a further experiment, the system named is guinea pig with MFD. The experiment can be described thus: Refractive power and axial length in guinea pig MFD model. It is filed as in vivo, albino guinea pigs. As to conditions: MFD + 1% atropine; Day 21. The protocol: In this study, a total of 160 golden Syrian hamsters aged 3 weeks, weighing 80 to 90 g, and 20 albino guinea pigs, aged 2 to 3 weeks, were used for experiments. All animals were kept in a 12-hour light/dark cycle. All procedures were approved by the Institutional Animal Care and Use Committee of China Medical University and were conducted in accordance with the guidelines of the Use of Animals in Ophthalmic and Vision Research. Hamsters were raised with a right eyelid fusion for 21 days. Myopia was induced in the guinea pigs by covering the right eye with a cloth attached to the skin at a distance of at least 1 cm from the eye. MFD was induced in the right eye (with the left eye serving as a control) of animals randomly assigned to treatment or control groups (n=10 animals each) receiving daily applications of drug or phosphate-buffered saline (PBS), respectively, to both eyes.
The RE (i.e., spherical-component RE, which is defined as the mean RE in horizontal and vertical meridians) was measured using a hand-held streak retinoscope. Animals were anesthetized with 10% ether in O2. Ocular refraction was evaluated at the start and end of the experiment. […] The axial lengths were determined through A-scan ultrasonography (PacScan 300 Plus, NY, USA). […]

The test system of experiment [2] is sclera or retina of guinea pig MFD eye. Description: Immunohistochemistry of guinea pig MFD eyes. It is filed as in vivo. The procedure: Eyes were collected from atropine-treated and control animals, embedded in paraffin, and cut at a thickness of 20 μm; subsequently, the sections were placed on glass slides. Antigen retrieval was performed by boiling the slides in citrate buffer (pH 6.0); the sections were then stained with antibodies against IL-6, TNF-α, TGF-β, MMP2, c-Fos, NF-κB, and CHRM1 and 3. The EnVision System peroxidase kit (DAKO, Carpentaria, Calif., USA) was used to visualize immunoreactivity.
We observed a similar increase in inflammatory response in hamsters as we did in a guinea pig model of MFD.

Data on one compound can be found in patent US20210283087A1, “METHOD FOR TREATING AND RELIEVING MYOPIA” (China Medical University, priority 2014, published 2021).

For the compound `CN1[C@@H]2CC[C@H]1C[C@@H](OC(=O)C(CO)c1ccccc1)C2` (stereo partly shown) [Atropine, atropine], in the experiment with MMP2, the “MMP2 activities in cells activated by LPS” value is “decreased”. In addition, in experiment [1] (1% atropine), the “IL-6 and TNF-α immunoreactivity in the retina of MFD eyes” value is recorded as “reduced”; the “c-Fos and NF-κB expression in the retinas of MFD eyes” value is “suppressed”. For the same compound, in experiment [1] (1% atropine compared with PBS), the “COL1 expression in the sclera of the MFD eye” value is reported as “increased” and the “MMP2 expression in the sclera of the MFD eye” value is recorded as “decreased”. In addition, the “MFD upregulation of TGF-β level in retina and sclera” value in experiment [1] (atropine) was “suppressed”. Further, the IL-10 expression result in experiment [1] (atropine treatment) was “elevated”. For the same compound, the “CHRM1 and CHRM 3 expression in MFD eyes” value in experiment [1] (atropine treatment compared with PBS-treated MFD eyes) is recorded as “downregulated”. Further, in the experiment on guinea pig with MFD, the “Refractive power, left eye (control eye)” value was −1.50±0.82 D and the “Refractive power, right eye (myopic eye)” value was −6.79±1.00 D. Besides, in experiment [2] (atropine), the “MFD downregulation of IL-10 level” value is “suppressed”. Moreover, in experiment [2] (atropine compared to PBS), the “COL1 expression in sclera or retina of the MFD eye” value is reported as “increased”; the “MMP2, TGF-β, and c-Fos expression in sclera or retina of the MFD eye” value was “reduced”.
